The test system of the assay is IGROV1 CR cells. Put plainly: Synergy with cisplatin, SRB cell viability, combination index. The class given is cell-based. How it is done: Cell viability was measured by SRB assay. […] Data were represented as mean ± SD (n = 3). (B) Colony formation assay in cells treated as indicated. […] (D) Growth curves of xenograft tumors are shown in (C). Data are represented as means ± SEM, n = 6 mice/group. **p < 0.01. […] (F) IGROV1 CR xenograft tumor growth curve by indicated treatments. Data are represented as means ± SD, n = 6 tumors/group. **p < 0.01. (G) Immunohistochemistry (IHC) staining against pSTAT3 antibodies of tumor samples from four groups of mice (magnification, 200x) (Upper). […]
represented as mean ± SD (n = 3) . ( B) Body we i ght changes of mice in each grou p treated […]
[…] Data are rep res e nted as mea ns ± SD, n= 6 tu mors /g roup . (C) H&E staining of paraffin‐embedded 3‐μm‐th ick tissue sec tions of the tumor, heart, lung , liver and kidney from 4 groups of mice (m agn i f ication , ×200) treated in B.
Cisplatin: sl ightl y […]
means ± SD, n=6 tumors/group . […]
1. Antibodies and re a ge nt s […]
[…] Momordin Ic ( A14773; Adooq Biosc ience) was dissolved in DMSO. Ursolic acid (A10961; Adooq Bioscience) wa s dissolved in DMSO. […]
Cell viability was detected using Sulforhodamine B (SRB) assay as described previously (3).
Absorbance at 51 0 nm was detected using a SpectraMax Re a d e r (Molecular Devices) and an alyzed with SoftMax Analys is Software (Molecular Devices). […]

From paper PMC8710297, “Identification of potent SENP1 inhibitors that inactivate SENP1/JAK2/STAT signaling pathway and overcome platinum drug resistance in ovarian cancer” (Clinical and Translational Medicine, 2021) come the findings set out here.

Take `C[C@H]1[C@H](C)CC[C@]2(C(=O)O)CC[C@]3(C)C(=CC[C@@H]4[C@@]5(C)CC[C@H](O)C(C)(C)[C@@H]5CC[C@]43C)[C@H]12` [UA, ursolic acid, reference compound]: the “synergy with cisplatin to inhibit IGROV1 CR cells” value is given as “great synergy”.
For `C[C@H]1[C@H](C)CC[C@]2(C(=O)NCC(=O)N(C)CCO)CC[C@]3(C)C(=CC[C@@H]4[C@@]5(C)CC[C@H](O)C(C)(C)[C@@H]5CC[C@]43C)[C@H]12` [UAMMC9], the “synergy with cisplatin to inhibit IGROV1 CR cells” value is reported as “great synergy”.
